Assay type in all cases: in vivo, rabbit
Holding throughout (details): Con A DED rabbits, 6 days, eye drops 3×/day; PS nanoparticles, cyclosporine 0.05%, lifitegrast 5%; mean ± SEM

In test [1] the test system is concanavalin A-induced dry eye in rabbits. The experiment in a line: Concanavalin A (Con A)-induced dry eye disease (DED) model in rabbits: TBUT, Schirmer test, tear osmolarity, tear lactoferrin. On the procedure:
To assess the efficacy of PS on DED an improved concanavalin A model was used. In the concanavalin A model, dry eye is induced by injecting the lacrimal glands of a mammal with concanavalin A, a selective T cell mitogen that induces a lymphocytic infiltrate in these glands. The concanavalin A model is generally described in (Barabino S. Animal models of dry eye. Arch Soc Esp Oftalmol. 2005; 80(12):693-4). Concanavalin A was injected to the lacrimal glands under ultrasound guidance, thus eliminating injections to the vicinity of the gland (as opposed to the gland itself). The head and the tail of the major lacrimal gland of the rabbit were injected separately. The dose of concanavalin A was optimized for DED signs.
In the testing described below, four markers of DED are monitored: the tear break up time (TBUT), the Schirmer test, tear osmolarity, and tear lactoferrin levels. All assays were performed at the same clock time (±1 hr) to avoid assay variability on account of circadian variations.
In an efficacy experiment using the concanavalin A model, one group of rabbits was treated with compound 5, also known as phosphosulindac and abbreviated as PS, 1.5% eye drops and one group with vehicle. […] It is thus clear that PS applied topically suppresses DED.
Con A was injected under ultrasound guidance into all the lacrimal glands and the success of the injection was verified by a post-injection ultrasound image (see FIG. 1 and FIG. 2). […] This variation explains why the blind injections recommended in the original method are often unsuccessful. This was confirmed by mixing the Con A solution with methylene blue and tracking its course after injection. In about ⅓ of the cases, Con A ended up outside the gland.
Four parameters of efficacy were evaluated instead of the usual one or two. They include (a) the tear break up time (TBUT), determined using 0.2% fluorescein over the eye and recording the time taken to develop black dots, lines or obvious disruption of the fluorescein film; (b) tear osmolarity, measured using TearLab Osmolarity Test and following the manufacturer's instructions (TearLab Corp., San Diego, Calif.); (3) Schirmer tear test (STT), determined using Schirmer strips (EagleVision, Denville, N.J.) inserted between the cornea and the palpebral conjunctiva at the mid-point of the lower lid and measuring the length of moistened strip at 5 min; and (4) tear lactoferrin levels measured by ELISA kit (MyBiosource, San Diego, Calif.) following the instructions of the manufacturer. All four have been used in clinical practice and correlate with the clinical activity of the disease. The STT is the least reliable and, as result, it is clinically used less than half as frequently as TBUT.
The injections of Con A to the lacrimal glands were repeated weekly as needed. When longer than a 1-week periods of study are needed, repeat injections prolong dry eye for at least 3 weeks, making the originally acute model chronic.
PS Suppresses Con A—Induced Dry Eye in Rabbits. The effect of PS on dry eye was determined in New Zealand White (NZW) rabbits, 2-3 kg (Charles River Labs, Waltham, Mass.). These rabbits were housed singly in rooms with strict temperature (70±5° F.) and humidity (45±5%) control and acclimated for at least 2 weeks prior to induction of dry eye by injection of Con A as above. NZW rabbits with Con A-induced dry eye (three sets of injections) were treated with PS formulated as nanoparticles and administered topically as eye drops 3×/day for 21 days, starting on the day of Con A injection. […] Similar results were obtained on days 5 and 14 (data not shown).
Using this model, we compared the effect of PS to that of cyclosporine and lifitegrast. Rabbits were treated for 6 days with PS as above or cyclosporine 0.05% or lifitegrast 5% eye drops 3×/day. In addition to determining TUBT, osmolarity and STT, we measured the levels of IL-8 and IL-1β in the ILGs of the rabbits harvested at euthanasia. […]

A further test relates to IL-1β. The experiment in a line: IL-1β levels in the ILG of rabbits with DED (ELISA). How it is done:
(§1) Using this model, we compared the effect of PS to that of cyclosporine and lifitegrast. Rabbits were treated for 6 days with PS as above or cyclosporine 0.05% or lifitegrast 5% eye drops 3×/day. In addition to determining TUBT, osmolarity and STT, we measured the levels of IL-8 and IL-1β in the ILGs of the rabbits harvested at euthanasia. Both of these cytokines are significant mediators of inflammation in DED. As shown in the table below, PS had statistically significant effects on TBUT, tear osmolarity, IL-8 and IL-1β levels. […] Of note, lifitegrast suppressed STT below the levels of the vehicle group and this suppression was statistically significant, but in the opposite direction for a useful therapeutic effect.
(§2) Moreover, for all three cytokines PS suppressed their unstimulated levels as well (62%, 84% and 4.7% reduction, respectively). In addition, PS suppressed the levels of IL-8 by 64% and IL-1β (not expressed by the cultured cells) by 61% in the ILG of rabbits treated with PS for 1 week compared to controls treated with vehicle (FIG. 8B). TGF-β was not detectable by the method in ILG homogenates. All these changes were statistically significant (p<0.001-0.04, except for the unstimulated TGF-β).
A general note: ELISA stands for enzyme-linked immunosorbent assay.

The subject of another test is IL-8. Put plainly: IL-8 levels in the ILG of rabbits with DED (ELISA). How it is done: as §1, §2

From patent US11510931B2, “Compositions and methods for treating ophthalmic conditions” (MEDICON PHARMACEUTICALS, INC., priority 2016, dated 2022) come the findings set out here.

Regarding `CS(=O)(=O)c1cccc(C[C@H](NC(=O)c2c(Cl)cc3c(c2Cl)CCN(C(=O)c2ccc4ccoc4c2)C3)C(=O)O)c1` [Lifitegrast, lifitegrast, reference compound], in test [1], the Osmolarity was 290 ± 4.2 mOsm/L, the STT came out at 6.9 ± 0.7 mm and the TBUT turned out to be 9.1 ± 3.0 s. For the same compound, in the test with IL-1β, the “IL-1β in the ILG” value was determined as 11.5 ± 1.9 pg/mg protein. Also, the “IL-8 in the ILG” value in the test with IL-8 was found to be 9.0 ± 2.4 pg/mg protein.
